row,SMILES,melting point [°C]
1,CC(C)Oc1cc(CCC(=O)NS(=O)(=O)c2ccc(C(F)(F)F)cc2)n(Cc2ccc(Cl)cc2Cl)n1,167 to 169
2,CCCn1cc(C(=O)NCc2ccc(Cl)cc2)c(=O)c2cc(CN(C)C[C@@H](O)c3ccccc3)sc21,45 to 48
3,COC(=O)c1ccc(C2=NOC(P(=O)(OC)OC)C2)cc1 (stereo not drawn),93
4,C=C(C)c1nc2cc3c(cc2[nH]1)NC(=O)C3(C)C,270 to 273
5,C[C@H]1NC(=O)[C@H]1N(NC(=O)OC(C)(C)C)C(=O)OC(C)(C)C,147 to 149
6,NC(=O)C1N=C(c2ccccc2)c2cc(Cl)ccc2NC1=O (stereo not drawn),255 to 256
7,COc1cn(-c2ccc(N3CCNC3=O)cc2F)nc(-c2ccnn2-c2ccccc2)c1=O,259 to 260
8,COc1ccc(C(=O)N(C)Cc2cccc(-c3ccc(CC4SC(=O)NC4=O)cc3)c2)cc1 (stereo not drawn),170
9,COc1ccc(CN(C)CCCOc2cccc(NC(=O)c3cccc4c(=O)c5cccc(OC)c5[nH]c34)c2)cc1OC,124
10,O=C1Nc2ccncc2C(c2ccccc2)N1C1CCN(Cc2ccccc2)CC1 (stereo not drawn),209 to 210
11,CN1CCN(c2cc3ccccc3c(=O)[nH]2)[C@@H](CO)C1,169 to 171
12,CCCCCN(CCCCC)CCCOC(=O)c1ccc2c(c1)-c1ccc(C(=O)OCCCN(CCCCC)CCCCC)c3cccc-2c13,148 to 151
13,CC(C)(C)Oc1ccc(C[C@H](NC(=O)OCc2ccccc2)C(=O)C=[N+]=[N-])cc1,80 to 82
14,CNC(=O)CN1CCC(C(O)(c2ccc(F)cc2)c2ccc(F)cc2)CC1,122 to 124
15,Fc1cccc(CC[C@H]2CNCCN2)c1,95 to 99
16,Cc1c(O)ccc(C=O)c1O,150
17,C=C(c1ccc(C(=O)OC)cc1)N1CC1C(N)=O (stereo not drawn),149 to 150
18,O=C(O)CCc1cn(Cc2ccc(OCc3cccnc3)cc2)cc1-c1ccccc1,131 to 132

# Other lines, results leading:
row,melting point [°C],SMILES
1,131 to 133,Cn1nc2c(c1-c1ccc(Cl)cc1)Cc1ccccc1-2
2,79 to 80,COc1ccc(COc2cccc(C#CC(=O)c3ccccc3)c2)cc1
3,72,COc1ccc2occ(CCN3CCN(c4cc(Cl)cc5cccnc45)CC3)c2c1
4,109 to 110,Cc1ccc(S(=O)(=O)OCC2COc3ccc4nocc4c3O2)cc1 (stereo not drawn)
5,131 to 132,COC(=O)c1cc(C)c(-c2cccc(OCc3ccc(COC(=O)c4ccccc4)c(COC(=O)c4ccccc4)c3)c2C)c(C)c1
6,242 to 243,Cc1ccc(-c2ccc(C(=O)Nc3ccc4nc(CN5C(C)(C)CCCC5(C)C)ccc4c3)cc2)cc1
7,266,Cc1cc(=O)[nH]c2ccc(Cn3ccnc3)cc12
8,122 to 123,COC(=O)C(N)=Cc1ccc(OCC(O)CNC(C)C)c(Cl)c1 (stereo not drawn)
9,284 to 286,O=C1NC(Cc2ccncc2)(Cc2ccncc2)C(=O)N1C12CC3CC(CC(C3)C1)C2
10,109 to 110,Cc1cc(-c2ccc(S(C)(=O)=O)cc2)n(-c2ccc(F)cc2)c1F
11,143 to 144,CC(C)(C)OC(=O)N1CC(=O)Nc2ccccc21
12,78 to 80,CC(CCCC(=NO)C(=O)O)(c1ccc(OCc2ccc3ccccc3n2)cc1)c1ccc(OCc2ccc3ccccc3n2)cc1
13,110 to 111,COC(=O)C=Cc1ccc(OCCN(C)c2ccccn2)c(F)c1
14,109,C[C@@H](S[C@H]1CO[C@H](c2ccc(C(=O)Nc3ccc(C#N)c4ccccc34)cc2)OC1)[C@](O)(Cn1cncn1)c1ccc(F)cc1F
15,80 to 83,O=C(O)CCCCc1c[nH]c2ccccc12
16,80 to 82,CNC(=NC#N)NCCSCc1ccc(CN)o1
17,100 to 101,CCOC(=O)C=C(C)C=CC=C(C)C=Cc1c(Cl)cc(OC)c(C)c1Cl
18,172 to 174,CS(=O)(=O)c1ccc(-c2cnn(CC(F)(F)F)c(=O)c2NCCC#N)cc1
19,122 to 125,OC(=S)c1cc(C(F)(F)F)ccc1O
20,259 to 263,CCC(=O)c1cc(C#N)c(=O)[nH]c1C

# Reference: a melting point compilation (Tetko et al.; mined from patent text by program, amines drawn as free bases though some values may be those of a salt)
